Measurements published in ChEMBL document CHEMBL5120939, “Novel Isoindolinone-Based Analogs of the Natural Cyclic Peptide Fenestin A: Synthesis and Antitumor Activity” (ACS Med Chem Lett, 2022).

Assays:
Assay type in all cases: functional
HeLa [1] = assay: Induction of apoptosis in human HeLa cells assessed as viable cells at 26.1 uM incubated for 48 hrs by annexinV-FITC/propidium iodide staining based flow cytometry analysis (reference value: 99.8%); conditions: read-out: Activity
HeLa [2] = assay: Induction of apoptosis in human HeLa cells assessed as viable cells at 13.2 uM incubated for 48 hrs by annexinV-FITC/propidium iodide staining based flow cytometry analysis (reference value: 99.8%); conditions: read-out: Activity
HeLa [3] = assay: Induction of apoptosis in human HeLa cells assessed as early apoptotic cells at 13.2 uM incubated for 48 hrs by annexinV-FITC/propidium iodide staining based flow cytometry analysis (reference value: 0.1%)
HeLa [4] = assay: Induction of apoptosis in human HeLa cells assessed as early apoptotic cells at 19.6 uM incubated for 48 hrs by annexinV-FITC/propidium iodide staining based flow cytometry analysis (reference value: 0.1%)
HeLa [5] = assay: Induction of apoptosis in human HeLa cells assessed as late apoptotic cells at 19.6 uM incubated for 48 hrs by annexinV-FITC/propidium iodide staining based flow cytometry analysis (reference value: 0.1%)
HeLa [6] = assay: Induction of cell cycle arrest in human HeLa cells assessed as <2N cells at 12.3 uM incubated for 12 hrs by RNAse A/PI staining based flow cytometric analysis (reference value: 41.6%)
HeLa [7] = assay: Induction of cell cycle arrest in human HeLa cells assessed as <2N cells at 12.3 uM incubated for 24 hrs by RNAse A/PI staining based flow cytometric analysis (reference value: 41.6%)
HeLa [8] = assay: Induction of cell cycle arrest in human HeLa cells assessed as S phase cells at 6.2 uM incubated for 48 hrs by RNAse A/PI staining based flow cytometric analysis (reference value: 20.5%)
HeLa [9] = assay: Induction of cell cycle arrest in human HeLa cells assessed as 2N cells at 12.3 uM incubated for 48 hrs by RNAse A/PI staining based flow cytometric analysis (reference value: 29.9%)
HeLa [10] = assay: Induction of cell cycle arrest in human HeLa cells assessed as <2N cells at 24.6 uM incubated for 48 hrs by RNAse A/PI staining based flow cytometric analysis (reference value: 41.6%)
HeLa [11] = assay: Induction of cell cycle arrest in human HeLa cells assessed as >4N cells at 24.6 uM incubated for 48 hrs by RNAse A/PI staining based flow cytometric analysis (reference value: 2.61%)

With `CC[C@H](C)[C@@H]1NC(=O)[C@H](CC(C)C)NC(=O)[C@@H]2CSCN2C(=O)[C@@H]2CSCN2C(=O)CN2C(=O)c3ccccc3[C@@]2(O)CN(Cc2ccccc2)C1=O` the viability at 26.1 µM (HeLa [1]) was 58%, the viability at 13.2 µM (HeLa [2]) was 84.5% and the Activity (HeLa [3]) was 5.6%. The Activity (HeLa [4]) was 23.3%, the Activity (HeLa [5]) was 6.7% and the Activity (HeLa [6]) was 33.1%. The Activity (HeLa [7]) was 33%, the Activity (HeLa [8]) was 11.1% and the Activity (HeLa [9]) was 28.1%. For the same compound, the Activity (HeLa [10]) was 14.4% and the Activity (HeLa [11]) was 3.51%.
